The source made the active and inactive calls. The rule behind the calls is not given here.
Key:
[1] = Toxicity in mouse assessed as reduction in activity at 150 mg/kg; assay type: organism-based; conditions: in vivo
[2] = biological target: cGMP-dependent protein kinase 2 (Homo sapiens) (UniProt Q13237); experiment: Inhibition of PRKG2 (unknown origin) at 0.5 uM
[3] = biological target: RAC-gamma serine/threonine-protein kinase (Homo sapiens, UniProt Q9Y243); experiment: Inhibition of AKT3 (unknown origin)
Sequence of RAC-gamma serine/threonine-protein kinase (Q9Y243 whole entry): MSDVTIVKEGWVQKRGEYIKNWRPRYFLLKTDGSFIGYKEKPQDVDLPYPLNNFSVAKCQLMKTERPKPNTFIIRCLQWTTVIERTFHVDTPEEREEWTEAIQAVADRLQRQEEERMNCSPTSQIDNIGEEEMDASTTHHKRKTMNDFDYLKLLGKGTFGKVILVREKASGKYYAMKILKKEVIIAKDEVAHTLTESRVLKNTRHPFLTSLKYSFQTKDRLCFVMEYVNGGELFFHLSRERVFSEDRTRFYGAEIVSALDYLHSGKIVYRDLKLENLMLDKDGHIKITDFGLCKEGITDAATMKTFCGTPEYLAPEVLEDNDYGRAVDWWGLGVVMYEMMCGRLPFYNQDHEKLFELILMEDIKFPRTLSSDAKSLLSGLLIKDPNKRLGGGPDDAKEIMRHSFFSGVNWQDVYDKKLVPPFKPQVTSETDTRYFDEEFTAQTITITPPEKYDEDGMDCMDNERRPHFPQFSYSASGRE

[4] = biological target: Protein kinase C eta type (Homo sapiens, UniProt P24723); experiment: Inhibition of PKCeta (unknown origin)
Sequence of Protein kinase C eta type (P24723 whole entry): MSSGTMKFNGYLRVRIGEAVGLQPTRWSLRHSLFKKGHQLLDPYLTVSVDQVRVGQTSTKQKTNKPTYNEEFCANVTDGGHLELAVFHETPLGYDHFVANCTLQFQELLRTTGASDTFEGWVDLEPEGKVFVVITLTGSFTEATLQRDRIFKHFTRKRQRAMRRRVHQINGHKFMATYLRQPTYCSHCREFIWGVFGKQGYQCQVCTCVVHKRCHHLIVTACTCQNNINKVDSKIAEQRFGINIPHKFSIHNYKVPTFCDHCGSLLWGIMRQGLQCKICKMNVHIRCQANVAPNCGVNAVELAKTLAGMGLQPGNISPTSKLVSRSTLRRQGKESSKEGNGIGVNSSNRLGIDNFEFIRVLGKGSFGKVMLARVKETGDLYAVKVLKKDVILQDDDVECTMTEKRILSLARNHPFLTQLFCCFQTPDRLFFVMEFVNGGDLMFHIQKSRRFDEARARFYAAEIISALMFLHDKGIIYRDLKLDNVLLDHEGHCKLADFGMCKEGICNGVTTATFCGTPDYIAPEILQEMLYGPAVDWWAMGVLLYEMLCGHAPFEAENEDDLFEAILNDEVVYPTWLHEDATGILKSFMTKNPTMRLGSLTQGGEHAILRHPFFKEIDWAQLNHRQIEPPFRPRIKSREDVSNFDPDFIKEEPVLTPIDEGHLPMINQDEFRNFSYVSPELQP

[5] = biological target: Tyrosine-protein kinase ABL1 (Homo sapiens, UniProt P00519); experiment: Inhibition of ABL (unknown origin)
[6] = biological target: ALK tyrosine kinase receptor (Homo sapiens, UniProt Q9UM73); experiment: Inhibition of ALK (unknown origin)
Sequence of ALK tyrosine kinase receptor (Q9UM73 whole entry): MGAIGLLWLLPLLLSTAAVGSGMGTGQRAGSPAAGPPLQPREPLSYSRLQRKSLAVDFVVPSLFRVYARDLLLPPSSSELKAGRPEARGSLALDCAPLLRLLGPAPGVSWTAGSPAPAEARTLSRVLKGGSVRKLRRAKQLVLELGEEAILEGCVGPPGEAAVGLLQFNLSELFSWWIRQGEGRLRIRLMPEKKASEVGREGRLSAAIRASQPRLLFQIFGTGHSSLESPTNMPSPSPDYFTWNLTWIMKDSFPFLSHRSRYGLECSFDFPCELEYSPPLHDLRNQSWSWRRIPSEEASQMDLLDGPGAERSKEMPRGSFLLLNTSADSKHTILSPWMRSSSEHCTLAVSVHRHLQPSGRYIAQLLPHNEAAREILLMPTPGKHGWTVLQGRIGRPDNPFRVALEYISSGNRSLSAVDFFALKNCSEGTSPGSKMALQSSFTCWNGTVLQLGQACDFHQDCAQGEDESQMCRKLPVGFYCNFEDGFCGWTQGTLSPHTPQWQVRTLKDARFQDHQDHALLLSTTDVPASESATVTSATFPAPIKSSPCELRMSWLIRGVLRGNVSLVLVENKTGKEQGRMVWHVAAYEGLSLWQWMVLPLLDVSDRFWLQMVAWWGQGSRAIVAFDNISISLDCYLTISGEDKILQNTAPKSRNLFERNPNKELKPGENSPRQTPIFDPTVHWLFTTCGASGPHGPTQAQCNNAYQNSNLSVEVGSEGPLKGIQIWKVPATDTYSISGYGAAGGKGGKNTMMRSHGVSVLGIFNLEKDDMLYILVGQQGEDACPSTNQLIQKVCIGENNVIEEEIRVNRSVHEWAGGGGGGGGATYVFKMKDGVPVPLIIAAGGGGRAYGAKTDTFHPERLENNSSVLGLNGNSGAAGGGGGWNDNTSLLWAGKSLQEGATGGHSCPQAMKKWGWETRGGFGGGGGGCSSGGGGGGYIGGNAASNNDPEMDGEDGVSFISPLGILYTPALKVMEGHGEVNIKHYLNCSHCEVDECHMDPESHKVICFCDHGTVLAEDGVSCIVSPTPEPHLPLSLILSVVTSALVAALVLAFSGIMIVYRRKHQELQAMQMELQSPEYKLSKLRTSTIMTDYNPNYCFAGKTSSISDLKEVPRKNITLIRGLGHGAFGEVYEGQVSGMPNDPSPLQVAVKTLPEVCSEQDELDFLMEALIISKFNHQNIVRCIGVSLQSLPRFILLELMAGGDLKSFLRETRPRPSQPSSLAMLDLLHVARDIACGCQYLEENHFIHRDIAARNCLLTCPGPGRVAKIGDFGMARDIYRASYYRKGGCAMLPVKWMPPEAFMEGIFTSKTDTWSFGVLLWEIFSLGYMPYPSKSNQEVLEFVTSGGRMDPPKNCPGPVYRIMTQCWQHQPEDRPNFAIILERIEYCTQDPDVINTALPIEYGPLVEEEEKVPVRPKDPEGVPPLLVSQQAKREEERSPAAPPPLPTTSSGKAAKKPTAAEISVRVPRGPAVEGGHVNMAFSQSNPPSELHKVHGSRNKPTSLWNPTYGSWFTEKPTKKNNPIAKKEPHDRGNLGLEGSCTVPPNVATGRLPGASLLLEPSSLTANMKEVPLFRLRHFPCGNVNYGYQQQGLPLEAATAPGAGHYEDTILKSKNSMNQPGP

[7] = biological target: Serine/threonine-protein kinase Chk1 (Homo sapiens, UniProt O14757); experiment: Inhibition of CHK1 (unknown origin)
Sequence of Serine/threonine-protein kinase Chk1 (O14757 whole entry, canonical isoform): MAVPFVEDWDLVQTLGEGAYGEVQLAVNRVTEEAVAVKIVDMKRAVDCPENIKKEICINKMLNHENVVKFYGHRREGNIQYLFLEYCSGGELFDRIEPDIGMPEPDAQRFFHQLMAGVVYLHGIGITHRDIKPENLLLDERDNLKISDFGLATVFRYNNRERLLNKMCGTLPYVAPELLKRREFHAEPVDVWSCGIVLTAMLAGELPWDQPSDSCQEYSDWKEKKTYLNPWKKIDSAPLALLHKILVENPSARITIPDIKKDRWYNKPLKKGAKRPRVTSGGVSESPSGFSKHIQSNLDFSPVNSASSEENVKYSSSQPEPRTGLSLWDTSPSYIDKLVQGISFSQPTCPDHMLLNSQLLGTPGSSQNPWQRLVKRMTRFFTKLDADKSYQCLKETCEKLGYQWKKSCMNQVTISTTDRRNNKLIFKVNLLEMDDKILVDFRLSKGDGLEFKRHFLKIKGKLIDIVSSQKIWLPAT

[8] = biological target: Phosphatidylinositol 4,5-bisphosphate 3-kinase catalytic subunit alpha isoform (Homo sapiens, UniProt P42336); experiment: Inhibition of PI3Kalpha (unknown origin)
HaCaT = experiment: Induction of apoptosis in human HaCaT cells assessed as cleaved caspase 3 level at 2.25 to 36 uM after 24 hrs by Western blot analysis; assay type: cell-based; conditions: dose 2.25-36 µM
U-87 MG = experiment: Antiproliferative activity against human U-87MG cells assessed as inhibition of cell growth incubated for 72 hrs by SRB method; assay type: functional, cell-based, U-87MG ATCC
NCI-H1975 = experiment: Antiproliferative activity against human NCI-H1975 cells assessed as inhibition of cell growth incubated for 72 hrs by SRB method; assay type: functional, cell-based; conditions: NCI-H1975, 72 h
A549 = experiment: Antiproliferative activity against human A549 cells assessed as inhibition of cell growth incubated for 72 hrs by SRB method; assay type: functional, cell-based; conditions: A549, 72 h
HepG2 = experiment: Antiproliferative activity against human HepG2 cells assessed as inhibition of cell growth incubated for 72 hrs by SRB method; assay type: functional, cell-based; conditions: HepG2, 72 h
769-P = experiment: Antiproliferative activity against human 769-P cells assessed as inhibition of cell growth incubated for 72 hrs by SRB method; assay type: functional, cell-based
KHOS/NP [9] = experiment: Antiproliferative activity against human KHOS cells assessed as inhibition of cell growth incubated for 72 hrs by SRB method; assay type: functional, cell-based
MDA-MB-231 = experiment: Antiproliferative activity against human MDA-MB-231 cells assessed as inhibition of cell growth incubated for 72 hrs by SRB method; assay type: functional, cell-based; conditions: MDA-MB-231, 72 h
PC-3 = experiment: Antiproliferative activity against human PC3 cells assessed as inhibition of cell growth incubated for 72 hrs by SRB method; assay type: functional, cell-based; conditions: PC-3, 72 h
Cytochrome P450 2C8 = Cytochrome P450 2C8 (Homo sapiens, UniProt P10632); experiment: Inhibition of CYP2C8 (unknown origin); assay type: ADME
Sequence of Cytochrome P450 2C8 (P10632 whole entry): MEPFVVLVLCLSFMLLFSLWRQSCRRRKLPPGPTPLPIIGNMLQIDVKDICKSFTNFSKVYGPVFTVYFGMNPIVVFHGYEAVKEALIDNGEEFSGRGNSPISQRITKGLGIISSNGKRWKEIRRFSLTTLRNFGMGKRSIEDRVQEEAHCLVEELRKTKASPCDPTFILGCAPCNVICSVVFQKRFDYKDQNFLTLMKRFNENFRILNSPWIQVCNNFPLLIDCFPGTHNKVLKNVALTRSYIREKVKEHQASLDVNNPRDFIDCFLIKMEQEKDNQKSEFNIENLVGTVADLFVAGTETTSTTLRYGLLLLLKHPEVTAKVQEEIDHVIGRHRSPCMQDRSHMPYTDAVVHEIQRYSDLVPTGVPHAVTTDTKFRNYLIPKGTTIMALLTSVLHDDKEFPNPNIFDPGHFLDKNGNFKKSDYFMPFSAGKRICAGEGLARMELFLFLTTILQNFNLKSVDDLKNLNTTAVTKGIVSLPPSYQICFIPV

Cytochrome P450 2C9 = Cytochrome P450 2C9 (Homo sapiens, UniProt P11712); experiment: Inhibition of CYP2C9 (unknown origin); assay type: ADME
Sequence of Cytochrome P450 2C9 (P11712 whole entry): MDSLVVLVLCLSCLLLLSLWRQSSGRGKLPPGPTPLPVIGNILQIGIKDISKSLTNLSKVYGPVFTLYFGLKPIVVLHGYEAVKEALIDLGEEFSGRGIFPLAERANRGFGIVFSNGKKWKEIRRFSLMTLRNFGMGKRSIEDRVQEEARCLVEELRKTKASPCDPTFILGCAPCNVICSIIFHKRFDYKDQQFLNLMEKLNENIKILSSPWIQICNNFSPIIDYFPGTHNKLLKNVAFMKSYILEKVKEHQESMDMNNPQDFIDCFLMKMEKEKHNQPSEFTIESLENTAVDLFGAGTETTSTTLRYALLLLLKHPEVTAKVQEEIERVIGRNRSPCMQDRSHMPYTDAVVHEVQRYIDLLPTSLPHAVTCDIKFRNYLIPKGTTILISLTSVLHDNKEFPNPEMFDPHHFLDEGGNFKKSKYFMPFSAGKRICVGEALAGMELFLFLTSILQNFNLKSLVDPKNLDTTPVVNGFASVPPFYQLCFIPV

[10] = Microsomal stability in monkey liver microsomes assessed as half life at 50 uM preincubated for 5 mins with NADPH followed by compound addition and measured upto 60 mins by LC-MS/MS analysis; assay type: ADME, Macaca mulatta, Microsome; conditions: rhesus monkey
[11] = Microsomal stability in mouse liver microsomes assessed as half life at 50 uM preincubated for 5 mins with NADPH followed by compound addition and measured upto 60 mins by LC-MS/MS analysis; assay type: ADME, Microsome
[12] = Microsomal stability in rat liver microsomes assessed as intrinsic clearance at 50 uM preincubated for 5 mins with NADPH followed by compound addition and measured upto 60 mins by LC-MS/MS analysis; assay type: ADME, Microsome; conditions: read-out: CLH
[13] = Microsomal stability in mouse liver microsomes assessed as intrinsic clearance at 50 uM preincubated for 5 mins with NADPH followed by compound addition and measured upto 60 mins by LC-MS/MS analysis; assay type: ADME, Microsome; conditions: read-out: CLH
[14] = Half life in Sprague-Dawley rat at 2 mg/kg, iv measured upto 24 hrs by LC-MS/MS analysis; assay type: ADME, organism-based; conditions: in vivo
[15] = Cmax in Sprague-Dawley rat at 15 mg/kg, ig measured upto 72 hrs by LC-MS/MS analysis; assay type: ADME, organism-based; parameters: route […], dose 15 mg/kg, time <=72; conditions: in vivo, po
[16] = Cmax in Sprague-Dawley rat at 2 mg/kg, iv measured upto 24 hrs by LC-MS/MS analysis; assay type: ADME, organism-based; parameters: route intravenous, dose 2 mg/kg, time <=24; conditions: in vivo
[17] = AUC(0 to infinity) in Sprague-Dawley rat at 15 mg/kg, ig measured upto 72 hrs by LC-MS/MS analysis; assay type: ADME, organism-based; parameters: route […], dose 15 mg/kg, time <=72; conditions: in vivo, po
[18] = AUC(0 to infinity) in Sprague-Dawley rat at 2 mg/kg, iv measured upto 24 hrs by LC-MS/MS analysis; assay type: ADME, organism-based; parameters: route intravenous, dose 2 mg/kg, time <=24; conditions: in vivo
[19] = Oral bioavailability in Sprague-Dawley rat measured upto 72 hrs by LC-MS/MS analysis; assay type: ADME, organism-based; conditions: in vivo
[20] = Drug metabolism in po dosed Sprague-Dawley rat urine assessed as M3 metabolite formation measured upto 72 hrs by UPLC-TOF-MS/MS analysis; assay type: ADME, organism-based; conditions: in vivo
[21] = Drug metabolism in po dosed Sprague-Dawley rat feces assessed as M2 metabolite formation measured upto 24 hrs by UPLC-TOF-MS/MS analysis; assay type: ADME, organism-based; conditions: in vivo
[22] = Drug metabolism in po dosed Sprague-Dawley rat bile assessed as M1 metabolite formation measured upto 24 hrs by UPLC-TOF-MS/MS analysis; assay type: ADME, organism-based; conditions: in vivo
[23] = Drug metabolism in po dosed Sprague-Dawley rat bile assessed as M2 metabolite formation measured upto 24 hrs by UPLC-TOF-MS/MS analysis; assay type: ADME, organism-based; conditions: in vivo
[24] = Drug metabolism in po dosed Sprague-Dawley rat bile assessed as M3 metabolite formation measured upto 24 hrs by UPLC-TOF-MS/MS analysis; assay type: ADME, organism-based; conditions: in vivo
[25] = Drug metabolism in po dosed Sprague-Dawley rat blood assessed as M3 metabolite formation measured upto 6 hrs by UPLC-TOF-MS/MS analysis; assay type: ADME, organism-based; conditions: in vivo
[26] = Toxicity in mouse assessed as weight loss at 150 mg/kg; assay type: organism-based; conditions: in vivo
[27] = Toxicity in mouse assessed as death at 250 mg/kg; assay type: organism-based; conditions: in vivo
[28] = Toxicity in Sprague-Dawley rat assessed as appearance of skin lesions at 25 to 75 mg/kg administered daily for 4 weeks; assay type: organism-based; conditions: in vivo, 672 h, dose 25-75 mg/kg
[29] = Toxicity in Sprague-Dawley rat assessed as effect on uterus at 25 to 75 mg/kg administered daily for 4 weeks by histopathological analysis; assay type: organism-based; conditions: in vivo, 672 h, dose 25-75 mg/kg
[30] = Toxicity in Sprague-Dawley rat assessed as effect on thyroid at 25 to 75 mg/kg administered daily for 4 weeks by histopathological analysis; assay type: organism-based; conditions: in vivo, 672 h, dose 25-75 mg/kg
786-0 [31] = experiment: Antitumor activity against human 786-0 cells xenografted in ig dosed BALB/c nude mouse assessed as tumor growth inhibition administered once daily for 22 days; assay type: functional, organism-based; conditions: dose 12.5-50 mg/kg, time 22.0 day
786-0 [32] = experiment: Antitumor activity against human 786-0 cells xenografted in dosed BALB/c nude mouse assessed as tumor growth inhibition at 12.5 to 50 mg/kg, ig administered once daily for 22 days; assay type: functional; conditions: dose 12.5-50 mg/kg, time 22 day
KHOS/NP [33] = experiment: Antitumor activity against human KHOS cells xenografted in dosed BALB/c nude mouse assessed as tumor growth inhibition at 12.5 to 50 mg/kg, ig administered once daily for 22 days; assay type: functional; conditions: dose 12.5-50 mg/kg, time 22 day

Sequence of cGMP-dependent protein kinase 2 (Homo sapiens) (Q13237 whole entry): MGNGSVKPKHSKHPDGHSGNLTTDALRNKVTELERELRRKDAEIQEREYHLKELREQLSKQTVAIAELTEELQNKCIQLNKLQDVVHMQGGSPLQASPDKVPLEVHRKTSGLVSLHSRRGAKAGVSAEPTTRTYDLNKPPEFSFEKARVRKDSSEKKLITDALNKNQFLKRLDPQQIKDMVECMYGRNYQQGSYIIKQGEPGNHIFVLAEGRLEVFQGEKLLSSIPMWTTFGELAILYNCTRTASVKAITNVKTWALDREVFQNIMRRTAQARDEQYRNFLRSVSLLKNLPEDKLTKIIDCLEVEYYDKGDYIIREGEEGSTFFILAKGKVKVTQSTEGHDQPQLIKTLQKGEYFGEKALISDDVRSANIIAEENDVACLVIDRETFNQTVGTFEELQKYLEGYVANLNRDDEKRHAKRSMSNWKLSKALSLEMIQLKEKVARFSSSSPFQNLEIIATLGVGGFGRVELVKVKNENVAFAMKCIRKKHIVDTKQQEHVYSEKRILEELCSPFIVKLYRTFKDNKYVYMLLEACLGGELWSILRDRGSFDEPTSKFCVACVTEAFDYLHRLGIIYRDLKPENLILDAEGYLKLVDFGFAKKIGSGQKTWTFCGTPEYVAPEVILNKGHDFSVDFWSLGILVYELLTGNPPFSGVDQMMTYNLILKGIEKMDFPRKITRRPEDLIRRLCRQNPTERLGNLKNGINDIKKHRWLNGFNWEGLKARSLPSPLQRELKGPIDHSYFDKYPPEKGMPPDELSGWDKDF

Cl.Cn1nccc1-c1ccc(C(=O)N[C@@H]2CNCC[C@H]2c2ccc(F)c(F)c2)c(F)c1
Activity [1]: Toxic | inhibition [2]: Active | IC50 [3]: 0.028 µM | IC50 [4]: > 2 µM | IC50 [5]: > 10 µM | IC50 [6]: > 10 µM | IC50 [7]: > 10 µM | IC50 [8]: > 10 µM | Activity (HaCaT): Non-Toxic | IC50 (U-87 MG): 9.26 µM | IC50 (NCI-H1975): 7.56 µM | IC50 (A549): 6.56 µM | IC50 (HepG2): 3.6 µM | IC50 (769-P): 7.76 µM | IC50 (KHOS/NP [9]): 7.47 µM | IC50 (MDA-MB-231): 16.4 µM | IC50 (PC-3): 8.74 µM | IC50 (Cytochrome P450 2C8): > 100 µM | IC50 (Cytochrome P450 2C9): > 100 µM | half-life at 50 µM [10]: 1.7 h | half-life at 50 µM [11]: 6.73 h | microsomal CLint at 50 µM [12]: 20 µL/min/mg | microsomal CLint at 50 µM [13]: 3.4 µL/min/mg | half-life [14]: 6.24 h | Cmax [15]: 171 ng/mL | Cmax [16]: 208 ng/mL | AUC(0-inf) [17]: 2820 ng·h/mL | AUC(0-inf) [18]: 533 ng·h/mL | bioavailability [19]: 66.2% | Drug metabolism [20]: Metabolite_Detected | Drug metabolism [21]: Metabolite_Detected | Drug metabolism [22]: Metabolite_Detected | Drug metabolism [23]: Metabolite_Detected | Drug metabolism [24]: Metabolite_Detected | Drug metabolism [25]: Metabolite_Detected | Activity [26]: Toxic | Activity [27]: Toxic | Activity [28]: Non-Toxic | Activity [29]: Non-Toxic | Activity [30]: Non-Toxic | Activity (786-0 [31]): Dose-Dependent Effect | TGI (786-0 [32]): 70% | TGI (KHOS/NP [33]): 55.7%

Reference: ChEMBL document CHEMBL4828735, “Discovery of N-((3S,4S)-4-(3,4-Difluorophenyl)piperidin-3-yl)-2-fluoro-4-(1-methyl-1H-pyrazol-5-yl)benzamide (Hu7691), a Potent and Selective Akt Inhibitor That Enables Decrease of Cutaneous Toxicity” (J Med Chem, 2021)
